The EC50 is the concentration giving half of the maximal effect. One may read the CC50 as the concentration at which the toxic effect on the cells reaches its halfway point. Lower therefore signals greater toxicity to the cells.

Each structure is given as a SMILES string. Where two headings read alike, the source gives them in different places.

The subject of data set [1] is HBV. Nature of the data set: Anti-viral assay in HepG2.2.15 cells: HBV inhibitory activity (HBV DNA in culture medium by q-PCR). Format: cell-based. The following applies: HepG2.2.15 cells, 6 days treatment, HBV DNA in culture medium by q-PCR, highest concentration 10 uM, read-out: EC50. From the text: (§1) Example 2: Anti-Viral Assay in HepG2.2.15 Cells
(§2) 1.1. Cell Line • HepG2.2.15 (the HepG2.2.15 cell line can be produced by transfection of the HepG2 cell line as described in Sells, Chen, and Acs 1987 (Proc. Natl. Acad. Sci. USA 84:1005-1009), and the HepG2 cell line is available from ATCC® under number HB-8065™). Reagents • DMEM/F12 (INVITROGEN-11330032) • FBS (GIBCO-10099-141) • Dimethyl sulfoxide(DMSO) (SIGMA-D2650) • Penicillin-streptomycin solution (HYCLONE-SV30010) • NEAA (INVITROGEN-1114050) • L-Glutamine (INVITROGEN-25030081) • Geneticin Selective Antibiotic (G418, 500 mg/ml) (INVITROGEN-10131027) • Trypsinase digestion solution (INVITROGEN-25300062) • CCK8 (BIOLOTE-35004) • QIAamp 96 DNA Blood Kit (12) (QIAGEN-51162) • FastStart Universal Probe Mast Mix (ROCHE-04914058001)
(§3) 2.1. HBV Inhibitory Activity and Cytotoxicity Determination
(§4) Seed the cell HepG2.2.15 cells into 96-well plate in 2% FBS culture medium at the density of 40,000 cells/well and 5,000 cells/well for HBV inhibitory activity and cytotoxicity determination, respectively. After seeding, incubate the cell plates at 37° C., 5% CO2 overnight. The next day, medium containing compounds is added to the cell to treat the cells for 6 days with medium refreshed once in the middle of the treatment. 8 dose points with 3 folds dilution of each compound were adopted and the highest concentration of the compounds is 10 uM and 100 uM for HBV inhibitory activity and cytotoxicity determination, respectively.
The HBV DAN change in the cell culture medium induced by the compounds is measured by q-PCR method. Briefly, the HBV DNA in the culture medium is extracted using QIAamp 96 DNA Blood Kit according to the manual and then quantified by q-PCR using the primers and probe in the table below.
(§5) EC50 and CC50 values are calculated by the GRAPHPAD PRISM software.

Data set [2] in a line: Cytotoxicity determination in HepG2.2.15 cells (CCK-8). The following applies: human, 6 days treatment, CCK-8, highest concentration 100 uM. Format: cell-based.
From the text: as §1, §2, §3, §4
After 6 days of compounds treatment, add 20 μl CCK-8 reagents to each well of cytotoxicity assay plates, incubate the plate at 37° C., 5% CO2 for 2.5 h and measure the absorbance at 450 nm wavelength, at the same time read the absorbance at 630 nm wavelength as reference.
as §5

The mark [3] stands for this setting: Hepatitis B virus, HepG2.2.15, 144 h.

For the molecule `CCOC(=O)C1=C([C@H]2CC[C@H](c3nc(CCC(=O)O)co3)CC2)NC(c2nccs2)=NC1c1ccc(F)c(F)c1Cl` (relative stereo) [Compound I-24, (trans)-3-(2-(4-(6-(2-Chloro-3,4-difluorophenyl)-5-(ethoxycarbonyl)-2-(thiazol-2-yl)-3,6-dihydropyrimidin-4-yl)cyclohexyl)oxazol-4-yl)propanoic acid], in data set [1] (setting [3]), the 50% effective concentration (EC50) came to 0.012 µM. In data set [2], it took 7.55 µM to reach half-maximal cytotoxicity (CC50 at 6 days). The matching figures for `COC(=O)C1=C([C@H]2CC[C@H](c3nc(C(=O)O)co3)CC2)NC(c2nccs2)=NC1c1ccc(F)c(F)c1Cl` (single isomer, unassigned) [Compound I-1-C, (trans)-2-(4-(6-(2-Chloro-3,4-difluorophenyl)-5-(methoxycarbonyl)-2-(thiazol-2-yl)-3,6-dihydropyrimidin-4-yl)cyclohexyl)oxazole-4-carboxylic Acid]: 0.0075 µM and 13.6 µM.

In the case of `CCOC(=O)C1=C([C@H]2CC[C@H](c3nc(C(=O)O)co3)CC2)NC(c2nccs2)=NC1c1ccc(F)c(F)c1Cl` (single isomer, unassigned) [Compound I-2-D, (trans)-2-(4-(6-(2-Chloro-3,4-difluorophenyl)-5-(ethoxycarbonyl)-2-(thiazol-2-yl)-3,6-dihydropyrimidin-4-yl)cyclohexyl)oxazole-4-carboxylic Acid], in data set [1] (setting [3]), the EC50 came to 0.006 µM. This molecule gave a CC50 at 6 days in data set [2] of 9.37 µM. With `COC(=O)C1=C([C@H]2CC[C@H](c3nc(C(=O)O)co3)CC2)NC(c2nccs2)=NC1c1cccc(F)c1C` (single isomer, unassigned) [Compound I-3-D, trans-2-(4-(6-(3-Fluoro-2-methylphenyl)-5-(methoxycarbonyl)-2-(thiazol-2-yl)-3,6-dihydropyrimidin-4-yl)cyclohexyl)oxazole-4-carboxylic Acid], the EC50 in data set [1] (setting [3]) is 0.14 µM. In addition, in data set [2], the CC50 at 6 days came out at 14.2 µM.

For `COC(=O)C1=C([C@H]2CC[C@H](c3nc(C(=O)O)co3)CC2)NC(c2nccs2)=NC1c1ccc(F)cc1Cl` (single isomer, unassigned) [Compound I-4-B, (trans)-2-(4-(6-(2-Chloro-4-fluorophenyl)-5-(methoxycarbonyl)-2-(thiazol-2-yl)-3,6-dihydropyrimidin-4-yl)cyclohexyl)oxazole-4-carboxylic Acid], the EC50 in data set [1] (setting [3]) came to 0.011 µM. The CC50 at 6 days in data set [2] was 16.4 µM. On to `COC(=O)C1=C([C@H]2CC[C@H](c3nc(C(=O)O)co3)CC2)NC(c2nccs2)=NC1c1cccc(F)c1Cl` (single isomer, unassigned) [Compound I-5-B, (trans)-2-(4-(6-(2-Chloro-3-fluorophenyl)-5-(methoxycarbonyl)-2-(thiazol-2-yl)-3,6-dihydropyrimidin-4-yl)cyclohexyl)oxazole-4-carboxylic Acid], for which, in data set [1] (setting [3]), the EC50 was found to be 0.06 µM. In data set [2], this molecule showed a CC50 at 6 days of 19.3 µM. Consider `COC(=O)C1=C([C@H]2CC[C@H](c3nc(C(=O)O)co3)CC2)NC(c2nccs2)=NC1c1ccc(F)cc1C` (single isomer, unassigned) [Compound I-6-B, (trans)-2-(4-(6-(4-Fluoro-2-methylphenyl)-5-(methoxycarbonyl)-2-(thiazol-2-yl)-3,6-dihydropyrimidin-4-yl)cyclohexyl)oxazole-4-carboxylic Acid], for which the half-maximal effective concentration (EC50) in data set [1] (setting [3]) stood at 0.072 µM. This molecule registered a CC50 at 6 days in data set [2] of 17.4 µM.

As for `COC(=O)C1=C([C@H]2CC[C@H](c3nc(C(=O)O)co3)CC2)NC(c2ncc(F)cc2F)=NC1c1ccc(F)c(F)c1Cl` (single isomer, unassigned) [Compound I-7-B, (trans)-2-(4-(6-(2-chloro-3,4-difluorophenyl)-2-(3,5-difluoropyridin-2-yl)-5-(methoxycarbonyl)-3,6-dihydropyrimidin-4-yl)cyclohexyl)oxazole-4-carboxylic acid], in data set [1] (setting [3]), the EC50 is 0.024 µM. The molecule further showed a CC50 at 6 days in data set [2] of 14.3 µM.

`COC(=O)C1=C(C23CC(c4nc(C(=O)O)co4)(C2)C3)NC(c2nccs2)=NC1c1ccc(F)c(F)c1Cl` (single isomer, unassigned) [Compound I-8-B, 2-(3-(6-(2-Chloro-3,4-difluorophenyl)-5-(methoxycarbonyl)-2-(thiazol-2-yl)-3,6-dihydropyrimidin-4-yl)bicyclo[1.1.1]pentan-1-yl)oxazole-4-carboxylic Acid]: in data set [1] (setting [3]), the EC50 was found to be 0.051 µM. Besides, the midpoint of cytotoxicity in data set [2], the CC50 at 6 days, lay at 26.6 µM. On to `CCOC(=O)C1=C([C@H]2CC[C@H](c3nc(C(=O)O)co3)CC2)NC(c2nccs2)=NC1c1cccc(F)c1Cl` (single isomer, unassigned) [Compound I-9-B, (trans)-2-(4-(6-(2-chloro-3-fluorophenyl)-5-(ethoxycarbonyl)-2-(thiazol-2-yl)-3,6-dihydropyrimidin-4-yl)cyclohexyl)oxazole-4-carboxylic Acid], for which the EC50 in data set [1] (setting [3]) turned out to be 0.025 µM. This molecule returned a CC50 at 6 days in data set [2] of 12.3 µM.

With `CCOC(=O)C1=C([C@H]2CC[C@H](c3nc(C(=O)O)co3)CC2)NC(c2nccs2)=NC1c1ccc(F)cc1Cl` (single isomer, unassigned) [Compound I-10-C, (trans)-2-(4-(6-(2-Chloro-4-fluorophenyl)-5-(ethoxycarbonyl)-2-(thiazol-2-yl)-3,6-dihydropyrimidin-4-yl)cyclohexyl)oxazole-4-carboxylic Acid], the EC50 in data set [1] (setting [3]) is 0.022 µM. In data set [2], the CC50 at 6 days came out at 7.64 µM. Consider `CCOC(=O)C1=C([C@H]2CC[C@H](c3nc(C(=O)O)co3)CC2)NC(c2nccs2)=NC1c1cccc(F)c1C` (single isomer, unassigned) [Compound I-11-B, (trans)-2-(4-(5-(Ethoxycarbonyl)-6-(3-fluoro-2-methylphenyl)-2-(thiazol-2-yl)-3,6-dihydropyrimidin-4-yl)cyclohexyl)oxazole-4-carboxylic Acid], for which the EC50 in data set [1] (setting [3]) was 0.037 µM. Also, half-maximal cytotoxicity in data set [2] (CC50 at 6 days) was put at 12.1 µM. The matching figures for `CCOC(=O)C1=C([C@H]2CC[C@H](c3nc(C(=O)O)co3)CC2)NC(c2nccs2)=NC1c1ccc(F)cc1C` (single isomer, unassigned) [Compound I-12-C, (trans)-2-(4-(5-(Ethoxycarbonyl)-6-(4-fluoro-2-methylphenyl)-2-(thiazol-2-yl)-3,6-dihydropyrimidin-4-yl)cyclohexyl)oxazole-4-carboxylic Acid]: 0.036 µM and 11.1 µM. Consider `CCOC(=O)C1=C(C2CC=C(c3nc(C(=O)O)co3)CC2)NC(c2nccs2)=NC1c1ccc(F)c(F)c1Cl` (single isomer, unassigned) [Compound I-13-C, 2-(4-(6-(2-chloro-3,4-difluorophenyl)-5-(ethoxycarbonyl)-2-(thiazol-2-yl)-3,6-dihydropyrimidin-4-yl)cyclohex-1-en-1-yl)oxazole-4-carboxylic Acid], for which, in data set [1], the EC50 came out at 0.0065 µM. In addition, the 50% cytotoxic concentration (CC50) at 6 days in data set [2] was 5.61 µM.

`CCOC(=O)C1=C([C@H]2CC[C@H](c3nc(C(=O)O)c(C)o3)CC2)NC(c2nccs2)=NC1c1ccc(F)c(F)c1Cl` (single isomer, unassigned) [Compound I-14-B, (trans)-2-(4-(6-(2-Chloro-3,4-difluorophenyl)-5-(ethoxycarbonyl)-2-(thiazol-2-yl)-3,6-dihydropyrimidin-4-yl)cyclohexyl)-5-methyloxazole-4-carboxylic Acid]: the EC50 in data set [1] (setting [3]) is 0.0047 µM. This molecule showed a CC50 at 6 days in data set [2] of 3.72 µM. For `CCOC(=O)C1=C([C@H]2CC[C@H](Cc3nc(C(=O)O)co3)CC2)NC(c2nccs2)=NC1c1ccc(F)c(F)c1Cl` (single isomer, unassigned) [Compound I-15-A, (trans)-2-((4-(6-(2-chloro-3,4-difluorophenyl)-5-(ethoxycarbonyl)-2-(thiazol-2-yl)-3,6-dihydropyrimidin-4-yl)cyclohexyl)methyl)oxazole-4-carboxylic Acid], in data set [1] (setting [3]), the concentration giving a half-maximal response (EC50) stood at 0.066 µM. This molecule came in with a 50% cytotoxic concentration (CC50) at 6 days in data set [2] of 6.27 µM. In the case of `CCOC(=O)Cc1coc([C@H]2CC[C@H](C3=C(C(=O)OCC)C(c4ccc(F)c(F)c4Cl)N=C(c4nccs4)N3)CC2)n1` (single isomer, unassigned) [VII-23-Y, (trans)-Ethyl 4-(2-chloro-3,4-difluorophenyl)-(4-(4-(2-ethoxy-2-oxoethyl)oxazol-2-yl)cyclohexyl)-2-(thiazol-2-yl)-1,4-dihydropyrimidine-5-carboxylate], the concentration giving a half-maximal response (EC50) in data set [1] (setting [3]) came out at 0.023 µM.

The values above are taken from patent US11053235B2, “Substituted 1,4-dihydropyrimidines for the treatment of HBV infection or HBV-induced diseases” (Janssen Sciences Ireland Unlimited Company, priority 2018, dated 2021).
